Assays:
Assay type in all cases: cell-based
JeKo-1 cells = experiment: Antiproliferative effect, MTS cell viability assay, JeKo-1 cells; details: Homo sapiens; JeKo-1 mantle cell lymphoma cells; read-out: IC50 (anti-proliferation) JeKO-1 cells
How it was run: (§1)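 Absorbance at 490 nm of formazan, formed by metabolically active cells from MTS tetrazolium, served as the viability measure after a 72 h treatment across a 0.001–10 μM concentration series plus untreated control.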

BTK = BTK (Homo sapiens, UniProt Q06187); experiment: BTK degradation, DC50 and Dmax of Table 1 (cell line not given); set-up: endogenous in cells; details: for DC50: concentration giving 50% reduction of BTK expression level
Sequence of BTK (Q06187 whole entry): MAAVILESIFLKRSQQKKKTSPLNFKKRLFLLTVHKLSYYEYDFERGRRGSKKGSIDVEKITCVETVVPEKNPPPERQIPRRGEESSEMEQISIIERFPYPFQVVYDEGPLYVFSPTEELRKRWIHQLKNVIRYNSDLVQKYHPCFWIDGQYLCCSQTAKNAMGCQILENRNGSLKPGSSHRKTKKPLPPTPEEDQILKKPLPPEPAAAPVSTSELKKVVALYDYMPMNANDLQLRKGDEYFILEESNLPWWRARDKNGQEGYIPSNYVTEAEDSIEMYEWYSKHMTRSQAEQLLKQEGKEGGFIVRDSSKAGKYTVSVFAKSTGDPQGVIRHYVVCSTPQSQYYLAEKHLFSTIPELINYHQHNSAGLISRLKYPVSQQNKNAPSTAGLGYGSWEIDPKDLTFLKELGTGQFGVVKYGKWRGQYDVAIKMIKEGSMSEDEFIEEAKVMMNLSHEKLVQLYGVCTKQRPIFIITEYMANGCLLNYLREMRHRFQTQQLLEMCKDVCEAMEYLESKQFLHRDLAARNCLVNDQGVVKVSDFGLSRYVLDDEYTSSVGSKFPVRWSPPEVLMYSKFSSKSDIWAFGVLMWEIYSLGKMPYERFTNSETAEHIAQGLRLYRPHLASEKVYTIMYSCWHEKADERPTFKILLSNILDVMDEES

Mino cells = experiment: Antiproliferative effect, MTS cell viability assay, Mino cells; details: Homo sapiens, MINO, Mino mantle cell lymphoma cells; read-out: IC50 (anti-proliferation) Mino cells
How it was run: as §1

Row | Structure (SMILES) | Dmax (BTK) | DC50 (BTK) | IC50 (JeKo-1 cells) | IC50 (Mino cells)
1 | Nc1ncnc2c1c(-c1ccc(Oc3ccccc3)cc1)nn2[C@@H]1CCCN(C(=O)N2CCC(CCN3CCC(c4ccc5c(c4)CN(C4CCC(=O)NC4=O)C5=O)CC3)CC2)C1 (stereo partly drawn) [Compound 74, 3-(5-(1-(2-(1-((R)-3-(4-amino-3-(4-phenoxyphenyl)-1H-pyrazolo[3,4-d]pyrimidin-1-yl)piperidine-1-carbonyl)piperidin-4-yl)ethyl)piperidin-4-yl)-1-oxoisoindolin-2-yl)piperidine-2,6-dione] | > 90% | 10 to 50 nM | > 10000 nM | > 10000 nM
2 | Nc1ncnc2c1c(-c1ccc(Oc3ccccc3)cc1)nn2C1CCN(C(=O)N2CCC(CCC3CCN(c4ccc5c(c4)CN(C4CCC(=O)NC4=O)C5=O)CC3)CC2)CC1 (centres unmarked) [Compound 102, 3-(5-(4-(2-(1-(4-(4-amino-3-(4-phenoxyphenyl)-1H-pyrazolo[3,4-d]pyrimidin-1-yl)piperidine-1-carbonyl)piperidin-4-yl)ethyl)piperidin-1-yl)-1-oxoisoindolin-2-yl)piperidine-2,6-dione] | > 90% | 10 to 50 nM | > 10000 nM | 1000 to 10000 nM
3 | Nc1ncnc2c1c(-c1ccc(Oc3ccccc3)cc1)nn2C1CCCN(CCOCCOCCN2CCC(c3ccc4c(c3)CN(C3CCC(=O)NC3=O)C4=O)CC2)C1 (centres unmarked) [Compound 14, 3-(5-(1-(2-(2-(2-(3-(4-amino-3-(4-phenoxyphenyl)-1H-pyrazolo[3,4-d]pyrimidin-1-yl)piperidin-1-yl)ethoxy)ethoxy)ethyl)piperidin-4-yl)-1-oxoisoindolin-2-yl)piperidine-2,6-dione] | > 90% | 10 to 50 nM | 1000 to 10000 nM | 1000 to 10000 nM
4 | Nc1ncnc2c1c(-c1ccc(Oc3ccccc3)cc1)nn2[C@@H]1CCCN(C(=O)N2CCC(CC3CCN(c4ccc5c(c4)C(=O)N(C4CCC(=O)NC4=O)C5=O)CC3)CC2)C1 (stereo partly drawn) [Compound 59, 5-(4-((1-((R)-3-(4-amino-3-(4-phenoxyphenyl)-1H-pyrazolo[3,4-d]pyrimidin-1-yl)piperidine-1-carbonyl)piperidin-4-yl)methyl)piperidin-1-yl)-2-(2,6-dioxopiperidin-3-yl)isoindoline-1,3-dione] | > 90% | 10 to 50 nM | < 1000 nM | < 1000 nM
5 | Nc1ncnc2c1c(-c1ccc(Oc3ccccc3)cc1)nn2[C@@H]1CCCN(C2CCN(C(=O)N3CCN(c4ccc5c(c4)CN(C4CCC(=O)NC4=O)C5=O)CC3)CC2)C1 (stereo partly drawn) [Compound 160, 3-(5-(4-((R)-3-(4-amino-3-(4-phenoxyphenyl)-1H-pyrazolo[3,4-d]pyrimidin-1-yl)-[1,4′-bipiperidine]-1′-carbonyl)piperazin-1-yl)-1-oxoisoindolin-2-yl)piperidine-2,6-dione] | > 50% | > 50 nM | > 10000 nM | 1000 to 10000 nM
6 | Nc1ncnc2c1c(-c1ccc(Oc3ccccc3)cc1)nn2[C@@H]1CCCN(C2CCN(C(=O)N3CCN(CCCN4CCC(c5ccc6c(c5)CN(C5CCC(=O)NC5=O)C6=O)CC4)CC3)CC2)C1 (stereo partly drawn) [Compound 192, 3-(5-(1-(3-(4-((R)-3-(4-amino-3-(4-phenoxyphenyl)-1H-pyrazolo[3,4-d]pyrimidin-1-yl)-[1,4′-bipiperidine]-1′-carbonyl)piperazin-1-yl)propyl)piperidin-4-yl)-1-oxoisoindolin-2-yl)piperidine-2,6-dione] | > 75% | 10 to 50 nM | > 10000 nM | > 10000 nM
7 | Nc1ncnc2c1c(-c1ccc(Oc3ccccc3)cc1)nn2[C@@H]1CCCN(C2CCN(CCCN3CCC(c4ccc5c(c4)C(=O)N(C4CCC(=O)NC4=O)C5=O)CC3)CC2)C1 (stereo partly drawn) [Compound 153, 5-(1-(3-((R)-3-(4-amino-3-(4-phenoxyphenyl)-1H-pyrazolo[3,4-d]pyrimidin-1-yl)-[1,4′-bipiperidin]-1′-yl)propyl)piperidin-4-yl)-2-(2,6-dioxopiperidin-3-yl)isoindoline-1,3-dione] | > 75% | > 50 nM | > 10000 nM | > 10000 nM
8 | Nc1ncnc2c1c(-c1ccc(Oc3ccccc3)cc1)nn2[C@@H]1CCCN(C(=O)N2CCN(CCCN3CCC(c4ccc5c(c4)CN(C4CCC(=O)NC4=O)C5=O)CC3)CC2)C1 (stereo partly drawn) [Compound 112, 3-(5-(1-(3-(4-((R)-3-(4-amino-3-(4-phenoxyphenyl)-1H-pyrazolo[3,4-d]pyrimidin-1-yl)piperidine-1-carbonyl)piperazin-1-yl)propyl)piperidin-4-yl)-1-oxoisoindolin-2-yl)piperidine-2,6-dione] | > 75% | > 50 nM | 1000 to 10000 nM | 1000 to 10000 nM
9 | Nc1ncnc2c1c(-c1ccc(Oc3ccccc3)cc1)nn2[C@@H]1CCCN(C(=O)N2CCC(c3ccc4c(c3)CN(C3CCC(=O)NC3=O)C4=O)CC2)C1 (stereo partly drawn) [Compound 48, 3-(5-(1-((R)-3-(4-amino-3-(4-phenoxyphenyl)-1H-pyrazolo[3,4-d]pyrimidin-1-yl)piperidine-1-carbonyl)piperidin-4-yl)-1-oxoisoindolin-2-yl)piperidine-2,6-dione] | > 50% | > 50 nM | > 10000 nM | > 10000 nM
10 | Nc1ncnc2c1c(-c1ccc(Oc3ccccc3)cc1)nn2[C@@H]1CCCN(C2CCN(C(=O)N3CCN(CCCC4CCN(c5ccc6c(c5)C(=O)N(C5CCC(=O)NC5=O)C6=O)CC4)CC3)CC2)C1 (stereo partly drawn) [Compound 189, 5-(4-(3-(4-((R)-3-(4-amino-3-(4-phenoxyphenyl)-1H-pyrazolo[3,4-d]pyrimidin-1-yl)-[1,4′-bipiperidine]-1′-carbonyl)piperazin-1-yl)propyl)piperidin-1-yl)-2-(2,6-dioxopiperidin-3-yl)isoindoline-1,3-dione] | > 75% | > 50 nM | > 10000 nM | 1000 to 10000 nM
11 | Nc1ncnc2c1c(-c1ccc(Oc3ccccc3)cc1)nn2[C@@H]1CCCN(C2CCN(C(=O)N3CCC(c4ccc5c(c4)CN(C4CCC(=O)NC4=O)C5=O)CC3)CC2)C1 (stereo partly drawn) [Compound 158, 3-(5-(1-((R)-3-(4-amino-3-(4-phenoxyphenyl)-1H-pyrazolo[3,4-d]pyrimidin-1-yl)-[1,4′-bipiperidine]-1′-carbonyl)piperidin-4-yl)-1-oxoisoindolin-2-yl)piperidine-2,6-dione] | > 50% | > 50 nM | > 10000 nM | > 10000 nM

Continued, in another order:

Row | Dmax (BTK) | DC50 (BTK) | Structure (SMILES) | IC50 (JeKo-1 cells) | IC50 (Mino cells)
12 | > 90% | < 10 nM | Nc1ncnc2c1c(-c1ccc(Oc3ccccc3)cc1)nn2[C@@H]1CCCN(CC2CCN(CCN3CCC(c4ccc5c(c4)C(=O)N(C4CCC(=O)NC4=O)C5=O)CC3)CC2)C1 (stereo partly drawn) [Compound 135, 5-(1-(2-(4-(((R)-3-(4-amino-3-(4-phenoxyphenyl)-1H-pyrazolo[3,4-d]pyrimidin-1-yl)piperidin-1-yl)methyl)piperidin-1-yl)ethyl)piperidin-4-yl)-2-(2,6-dioxopiperidin-3-yl)isoindoline-1,3-dione] | 1000 to 10000 nM | < 1000 nM
13 | > 90% | < 10 nM | Nc1ncnc2c1c(-c1ccc(Oc3ccccc3)cc1)nn2C1CCN(CCOCCOCCN2CCC(c3ccc4c(c3)CN(C3CCC(=O)NC3=O)C4=O)CC2)CC1 (centres unmarked) [Compound 10, 3-(5-(1-(2-(2-(2-(4-(4-amino-3-(4-phenoxyphenyl)-1H-pyrazolo[3,4-d]pyrimidin-1-yl)piperidin-1-yl)ethoxy)ethoxy)ethyl)piperidin-4-yl)-1-oxoisoindolin-2-yl)piperidine-2,6-dione] | 1000 to 10000 nM | < 1000 nM
14 | > 90% | < 10 nM | Nc1ncnc2c1c(-c1ccc(Oc3ccccc3)cc1)nn2[C@@H]1CCCN(C(=O)N2CCC(CCC3CCN(c4ccc5c(c4)C(=O)N(C4CCC(=O)NC4=O)C5=O)CC3)CC2)C1 (stereo partly drawn) [Compound 71, 5-(4-(2-(1-((R)-3-(4-amino-3-(4-phenoxyphenyl)-1H-pyrazolo[3,4-d]pyrimidin-1-yl)piperidine-1-carbonyl)piperidin-4-yl)ethyl)piperidin-1-yl)-2-(2,6-dioxopiperidin-3-yl)isoindoline-1,3-dione] | 1000 to 10000 nM | 1000 to 10000 nM
15 | > 75% | 10 to 50 nM | Nc1ncnc2c1c(-c1ccc(Oc3ccccc3)cc1)nn2[C@@H]1CCCN(C2CCN(C(=O)N3CCC(C4CCN(c5ccc6c(c5)CN(C5CCC(=O)NC5=O)C6=O)CC4)CC3)CC2)C1 (stereo partly drawn) [Compound 164, 3-(5-(1′-((R)-3-(4-amino-3-(4-phenoxyphenyl)-1H-pyrazolo[3,4-d]pyrimidin-1-yl)-[1,4′-bipiperidine]-1′-carbonyl)-[4,4′-bipiperidin]-1-yl)-1-oxoisoindolin-2-yl)piperidine-2,6-dione] | > 10000 nM | 1000 to 10000 nM
16 | > 90% | < 10 nM | Nc1ncnc2c1c(-c1ccc(Oc3ccccc3)cc1)nn2[C@@H]1CCCN(C(=O)N2CCN(CCN3CCC(c4ccc5c(c4)C(=O)N(C4CCC(=O)NC4=O)C5=O)CC3)CC2)C1 (stereo partly drawn) [Compound 69, 5-(1-(2-(4-((R)-3-(4-amino-3-(4-phenoxyphenyl)-1H-pyrazolo[3,4-d]pyrimidin-1-yl)piperidine-1-carbonyl)piperazin-1-yl)ethyl)piperidin-4-yl)-2-(2,6-dioxopiperidin-3-yl)isoindoline-1,3-dione] | 1000 to 10000 nM | 1000 to 10000 nM
17 | > 75% | > 50 nM | Nc1ncnc2c1c(-c1ccc(Oc3ccccc3)cc1)nn2C1CCN(C(=O)N2CCN(CCCC3CCN(c4ccc5c(c4)C(=O)N(C4CCC(=O)NC4=O)C5=O)CC3)CC2)CC1 (centres unmarked) [Compound 121, 5-(4-(3-(4-(4-(4-amino-3-(4-phenoxyphenyl)-1H-pyrzolo[3,4-d]pyrimidin-1-yl)piperidine-1-carbonyl)piperazin-1-yl)propyl)piperidin-1-yl)-2-(2,6-dioxopiperidin-3-yl)isoindoline-1,3-dione] | 1000 to 10000 nM | 1000 to 10000 nM

— patent US12139492B2 (Endotarget Inc., priority 2021, dated 2024)
